Test results published in PubChem BioAssay AID1918935 (Molecular Pharmacology Branch, DTP, NCI, 2023).
Where “and” joins values, the source holds several entries; their conditions need not be identical. Equal values may be shown once.

Tested on: 324938-238-R-J1-PDC complex spheroid viability
Assay: Anticancer human tumor 324938-238-R-J1-PDC patient-derived bladder carcinoma cell line growth inhibition
Details: for viability, T/C: stronger effect = lower value; active = viability on the fitted dose curve at most 10% of control; inactive = the rest
How it was run: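 Complex spheroids of tumor cells with HUVEC and human MSCs, exposed to iadademstat combined with other agents. Each agent tested in half-log steps from near clinical Cmax (else 10 microM top), DMSO ≤0.25%.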

[1] = curve of first compound, second compound 0.1 µM
[2] = curve of first compound, second compound 0.316 µM
[3] = curve of first compound, second compound 1 µM
[4] = curve of first compound, second compound 3.16 µM
[5] = curve of first compound, second compound 10 µM
[6] = second compound 0.1 µM, first compound 0.00949 µM
[7] = second compound 0.1 µM, first compound 0.03 µM
[8] = second compound 0.1 µM, first compound 0.0949 µM
[9] = second compound 0.1 µM, first compound 0.3 µM
[10] = second compound 0.316 µM, first compound 0.00949 µM
[11] = second compound 0.316 µM, first compound 0.03 µM
[12] = second compound 0.316 µM, first compound 0.0949 µM
[13] = second compound 0.316 µM, first compound 0.3 µM
[14] = second compound 1 µM, first compound 0.00949 µM
[15] = second compound 1 µM, first compound 0.03 µM
[16] = second compound 1 µM, first compound 0.0949 µM
[17] = second compound 1 µM, first compound 0.3 µM
[18] = second compound 3.16 µM, first compound 0.00949 µM
[19] = second compound 3.16 µM, first compound 0.03 µM
[20] = second compound 3.16 µM, first compound 0.0949 µM
[21] = second compound 3.16 µM, first compound 0.3 µM
[22] = second compound 10 µM, first compound 0.00949 µM
[23] = second compound 10 µM, first compound 0.03 µM
[24] = second compound 10 µM, first compound 0.0949 µM
[25] = second compound 10 µM, first compound 0.3 µM
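Note: spheroids also contain HUVEC and human MSCs and agents combined with iadademstat; spheroids exposed to agents for 7 days before readout.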

CC[C@@]1(O)C(=O)OCc2c1cc1n(c2=O)Cc2cc3c(CN(C)C)c(O)ccc3nc2-1 + NC1CC1c1ccc(-c2cccc(O)c2)cc1
1.13 nM: IC50 [2]
inactive: viability, T/C (second compound 0.1 µM, first compound 0.000316 µM) 82.5% | viability, T/C (second compound 0.1 µM, first compound 0.001 µM) 57% | viability, T/C (second compound 0.1 µM, first compound 0.00316 µM) 27% | viability, T/C (second compound 0.1 µM, first compound 0.01 µM) 7.09% | viability, T/C (second compound 0.316 µM, first compound 0.000316 µM) 68.2% | viability, T/C (second compound 0.316 µM, first compound 0.001 µM) 52.5% | viability, T/C (second compound 0.316 µM, first compound 0.00316 µM) 25.4% | viability, T/C (second compound 1 µM, first compound 0.000316 µM) 67.8% | viability, T/C (second compound 1 µM, first compound 0.001 µM) 58.2% | viability, T/C (second compound 1 µM, first compound 0.00316 µM) 27.7% | viability, T/C (second compound 3.16 µM, first compound 0.000316 µM) 69.7% | viability, T/C (second compound 3.16 µM, first compound 0.001 µM) 53.6% | viability, T/C (second compound 3.16 µM, first compound 0.00316 µM) 28.6% | viability, T/C (second compound 10 µM, first compound 0.000316 µM) 66.1% | viability, T/C (second compound 10 µM, first compound 0.001 µM) 52.7% | viability, T/C (second compound 10 µM, first compound 0.00316 µM) 28.8% | viability, T/C (second compound 10 µM, first compound 0.01 µM) 10.2%
1.22 nM: IC50 [4]
active: viability, T/C (second compound 0.1 µM, first compound 0.0316 µM) 7.47% | viability, T/C (second compound 0.1 µM, first compound 0.1 µM) 8.37% | viability, T/C (second compound 0.316 µM, first compound 0.01 µM) 6.5% | viability, T/C (second compound 0.316 µM, first compound 0.0316 µM) 7.53% | viability, T/C (second compound 0.316 µM, first compound 0.1 µM) 6.02% | viability, T/C (second compound 1 µM, first compound 0.01 µM) 6.31% | viability, T/C (second compound 1 µM, first compound 0.0316 µM) 6.22% | viability, T/C (second compound 1 µM, first compound 0.1 µM) 8.13% | viability, T/C (second compound 3.16 µM, first compound 0.01 µM) 7% | viability, T/C (second compound 3.16 µM, first compound 0.0316 µM) 5.72% | viability, T/C (second compound 3.16 µM, first compound 0.1 µM) 6.54% | viability, T/C (second compound 10 µM, first compound 0.0316 µM) 8.64% | viability, T/C (second compound 10 µM, first compound 0.1 µM) 9.59%
1.32 nM: IC50 [1]
1.38 nM: IC50 [3]
1.17 nM: IC50 [5]

Nc1ccccc1NC(=O)c1ccc(CNC(=O)OCc2cccnc2)cc1 + NC1CCC(NC2CC2c2ccccc2)CC1
363 nM: IC50 [4]
375 nM: IC50 [5]
390 nM: IC50 [2]
inactive: viability, T/C [6] 92% | viability, T/C [7] 81.6% | viability, T/C [8] 68.5% | viability, T/C [9] 54.4% | viability, T/C (second compound 0.1 µM, first compound 0.949 µM) 39.9% | viability, T/C (second compound 0.1 µM, first compound 3 µM) 17.2% | viability, T/C [10] 84.3% | viability, T/C [11] 88% | viability, T/C [12] 67.6% | viability, T/C [13] 55% | viability, T/C (second compound 0.316 µM, first compound 0.949 µM) 34.6% | viability, T/C (second compound 0.316 µM, first compound 3 µM) 12.9% | viability, T/C [14] 79% | viability, T/C [15] 76.2% | viability, T/C [16] 73.3% | viability, T/C [17] 54.5% | viability, T/C (second compound 1 µM, first compound 0.949 µM) 39.2% | viability, T/C (second compound 1 µM, first compound 3 µM) 14.9% | viability, T/C [18] 81.5% | viability, T/C [19] 72.4% | viability, T/C [20] 62% | viability, T/C [21] 54.9% | viability, T/C (second compound 3.16 µM, first compound 0.949 µM) 37.9% | viability, T/C (second compound 3.16 µM, first compound 3 µM) 16% | viability, T/C [22] 76.8% | viability, T/C [23] 68.9% | viability, T/C [24] 68.2% | viability, T/C [25] 50.5% | viability, T/C (second compound 10 µM, first compound 0.949 µM) 37.8% | viability, T/C (second compound 10 µM, first compound 3 µM) 12.4%
412 nM: IC50 [1]
465 nM: IC50 [3]

Nc1ccccc1NC(=O)c1ccc(CNC(=O)OCc2cccnc2)cc1
inactive: viability, T/C (compound 0.00949 µM) 112% and 111% | viability, T/C (compound 0.03 µM) 107% and 111% | viability, T/C (compound 0.0949 µM) 96.8% and 88.3% | viability, T/C (compound 0.3 µM) 63.3% and 59.8% | viability, T/C (compound 0.949 µM) 37.7% and 37.5%
9.59% and 7.01%: viability, T/C (compound 3 µM)
555 nM and 507 nM: IC50 (curve of compound)

Nc1ncn(C2CC(O)C(CO)S2)c(=O)n1 (configuration not stated) + NC1CC1c1ccc(-c2cccc(O)c2)cc1
inactive: viability, T/C (second compound 0.1 µM, first compound 0.000949 µM) 84.5% | viability, T/C (second compound 0.1 µM, first compound 0.003 µM) 87.4% | viability, T/C [6] 58.1% | viability, T/C [7] 37.9% | viability, T/C [8] 26.6% | viability, T/C [9] 16.9% | viability, T/C (second compound 0.316 µM, first compound 0.000949 µM) 78.1% | viability, T/C (second compound 0.316 µM, first compound 0.003 µM) 70.5% | viability, T/C [10] 54% | viability, T/C [11] 36.9% | viability, T/C [12] 29% | viability, T/C [13] 16% | viability, T/C (second compound 1 µM, first compound 0.000949 µM) 63.4% | viability, T/C (second compound 1 µM, first compound 0.003 µM) 59.2% | viability, T/C [14] 48.4% | viability, T/C [15] 38.1% | viability, T/C [16] 28% | viability, T/C [17] 16.8% | viability, T/C (second compound 3.16 µM, first compound 0.000949 µM) 67.2% | viability, T/C (second compound 3.16 µM, first compound 0.003 µM) 62% | viability, T/C [18] 55.2% | viability, T/C [19] 41.1% | viability, T/C [20] 32.2% | viability, T/C [21] 17.5% | viability, T/C (second compound 10 µM, first compound 0.000949 µM) 62.9% | viability, T/C (second compound 10 µM, first compound 0.003 µM) 57.5% | viability, T/C [22] 48.8% | viability, T/C [23] 42.3% | viability, T/C [24] 29.1% | viability, T/C [25] 25%
13.3 nM: IC50 [2]
8.37 nM: IC50 [3]
16.4 nM: IC50 [1]
9.28 nM: IC50 [5]
14.4 nM: IC50 [4]
